{
  "source": "patent US5882881A",
  "about": "“Inhibition of cyst formation by cytoskeletal specific drugs” (priority 1998, dated 1999)",
  "key": {"[1]": {"system": "normal phenotype, heterozygous mice", "assay": "Body weight of normal phenotype heterozygous C57BL/6 mice (FIG. 3A)", "format": "in vivo, mouse", "details": "versus methotrexate or non-treated", "source_text": "(§1) […]. The body weights of untreated, taxol treated and methotrexate treated C57BL/6j mice between day 10 and day 45 after birth is shown in A. The body weights of untreated, taxol treated and methotrexate treated cpk mice are shown in B. Results in each group are the mean of 6 animals. Untreated and methotrexate treated cpk mice died between days 26 and 28. […].\n(§2) In a related procedure I treated both normal C57BL/6 and cpk mice at 11-14 days of age with either taxol or methotrexate as described above. Six untreated mice served as controls in this experiment."}, "cpk mice kidney": {"system": "cpk mice kidney", "format": "in vivo, mouse", "details": "weekly taxol for 200 days", "method": "[…]. Untreated and methotrexate (MTX) treated polycystic cpk mice all died before 30 days of age. […]. The dotted line starting at day 120 indicates the number and age of apparently healthy taxol treated polycystic mice that were sacrificed for histology studies. Pairs of mice were sacrificed at 120 days, 182 days and 210 days of age.\nEleven homozygous cpk mice, raised and identified as in Example 6 were treated with 15 μl of 10 mg/ml taxol in DMSO through intraperitoneal injection beginning 11-14 days after birth. Following the first treatment, the mice were administered with the same treatment once every week thereafter. As controls, 6 cpk mice were treated with 15 μl intraperitoneal injections of DMSO beginning 10-12 days after birth and then once every week thereafter."}, "[2]": {"details": "humans; approximately; cited from earlier work"}, "Murine CPK Cells [3]": {"system": "Murine CPK Cells", "assay": "3H-thymidine incorporation (DNA synthesis) in CPK cell suspension culture", "format": "cell-based, mouse", "details": "± SD, three wells; concentrations as in Table II; control 100 ± 11; 1440 min", "method": "Growth studies were performed on kidney cells derived from day 10, 21 and 28 postnatal CPK mice and their normal littermates. Immediately after cells were placed in suspension or monolayer culture, 3 μCi of ^3 H-thymidine (^3 H-dThd, specific activity 45 Ci/mmol, Amersham, Ill.) was placed in each well of the culture plate. DNA synthesis was assessed by incorporation of ^3 H-dThd over the 24 hours of culture, and trichloroacetic acid-insoluble. radioactivity was expressed as cpm/μg protein. Protein was assayed with the BCA reagent as described by the manufacturer (Pierce, Rockford, Ill.). At 24 hours of culture, an aliquot (0.2 ml) of the suspension was removed and the number of cysts counted using an inverted microscope. The number of cysts was expressed as a ratio factored for the total number of cells in the suspension at 24 hours of culture. Cyst diameter was measured at 100× using an eyepiece micrometer.\nThe effects of various metabolic inhibitors on cyst formation were studied in cultures derived from day 21 postnatal CPK mice. […] Taxol (25 μM), a microtubule specific inhibitor, was from Calbiochem (La Jolla, Calif.). All other chemicals were obtained from Sigma Chemical Co. Cytosine arabinoside was added at the final concentration of 20 μg/ml to inhibit DNA synthesis; α-amanitin at 100 ng/ml to inhibit RNA synthesis; cycloheximide at 40 μg/ml to inhibit protein synthesis; amiloride at 1 mM to inhibit the renal epithelial Na^+ -H^+ exchange; ouabain at 0.5 mM to inhibit Na^+ -K^+ -ATPase; brefeldin-A at 10 μg/ml to inhibit transport of surface proteins; griseofulvin at 350 μM to inhibit microtubule function; colchicine at 10 μM to inhibit microtubule polymerization; and cytochalasin-B and cytochalasin-D at 10 μM to depolymerize actin filaments.\nIn the presence of these metabolic inhibitors in vitro, cyst formation was noted to be either present or absent; if present, the diameters of 20 cysts from a 0.2 ml aliquot were measured. In the same samples, ^3 H-dThd incorporation was also measured as described above. […] After each wash, cell clusters were collected by centrifuging at 200×g for 1 minute and the supernatant discarded. Washed cell clusters were resuspended in the original volume of growth medium without inhibitors, placed in agarose coated wells and incubated at 37° C. in a moisture saturated incubator in 5% CO2 and air.\nIn this table, the mean cyst size is reported as ±SD with a measurement of twenty cysts. The ^3 H-dThd incorporation is reported as ±SD using measurements of three wells. The * indicates […] versus control. […] The entries listed as \"NA\" in the table indicate data that is not available."}, "human ADPKD cells": {"system": "human ADPKD cells", "assay": "In vitro cyst formation in human ADPKD cells", "format": "cell-based", "details": "human ADPKD cells; cytosine arabinoside 20 μg/ml, α-amanitin 100 ng/ml, cycloheximide 40 μg/ml, amiloride 1 mM, ouabain 0.5 mM, taxol 25 μM, colchicine 10 μM, vinblastine 1 μM, cytochalasins 10 μM", "source_text": "I have substituted human ADPKD cells for the murine CPK cells of Example 1 and produced similar results. Other cyst-forming cells are believed to also form suitable results with only minor deviations from the conditions set forth in Example 1.\nCell suspensions were separated from debris by sedimentation at unit gravity and decantation. After washing once with DMEM/F12 medium, cells were suspended in DMEM/F12 supplemented with 1.2 gm/l sodium bicarbonate, 1× insulin, transferrin and selenium (Sigma # 11184), 1% lipids supplement (Sigma # L4646) and 1× antibiotic/antimycotic (Sigma # A7292) at a density of 5×10^4 cells per ml. Two mls of the cell suspension were aliquoted into each well of a six-well plastic cell culture plates that had been precoated with 2 mls of 1% low melting point agarose in DMEM/F12 and incubated at 37° C. in a humidified atmosphere of 5% CO2 in air.\nI used the in vitro cyst formation system of the present invention to analyze compounds that affect the process of cyst formation. To determine the therapeutic effectiveness of an agent, cyst-forming cells are suspended in a medium to which the agent has been added. These cells are then cultured on a solid phase without formation of a layer of cells on the surface, such as in the assay system described in Example 1. The extent to which the cells actually form cysts can be detected and compared to the extent of cyst formation expected if no agent were added. If the amount of cyst formation is lower than expected, then the agent is a good candidate for therapeutic intervention of cystic diseases."}, "cpk mice": {"system": "cpk mice", "assay": "Growth and survival of cpk mice treated with taxol or methotrexate (FIG. 3B)", "format": "in vivo, mouse", "source_text": "as §1, §2"}, "Murine CPK Cells [4]": {"system": "Murine CPK Cells", "assay": "In vitro cyst formation and cyst size in suspension culture of murine CPK cells", "format": "cell-based, mouse", "details": "day 21, 24 h, final concentration per Table II (cytosine arabinoside 20 μg/ml, α-amanitin 100 ng/ml, cycloheximide 49 μg/ml, ouabain 1 mM, amiloride 1 mM, brefeldin-A 10 μg/ml, griseofulvin 350 μM, colchicine 10 μM, vinblastine 1 μM, nocodazole 30 μM, taxol 25 μM, cytochalasins 10 μM)"}},
  "data": [
    {"compound": "CC(=O)O[C@H]1C(=O)[C@@]2(C)[C@H]([C@H](OC(=O)c3ccccc3)[C@]3(O)C[C@H](OC(=O)[C@H](O)[C@@H](NC(=O)c4ccccc4)c4ccccc4)C(C)=C1C3(C)C)[C@]1(OC(C)=O)CO[C@@H]1C[C@@H]2O", "note": "[Taxol]", "values": [
      {"measurement": "weight gain (in words)", "setting": "[1]", "result": "gained less weight"},
      {"measurement": "kidney histology of control mice", "setting": "cpk mice kidney", "result": "normal kidney histology"},
      {"measurement": "in vivo half-life", "setting": "[2]", "result": "6 to 12", "unit": "h"},
      {"measurement": "^3 H-dThd Incorporation", "setting": "Murine CPK Cells [3]", "result": "90 ± 11", "unit": "% control"},
      {"measurement": "cyst formation (in words)", "setting": "human ADPKD cells", "result": "reversibly inhibited in vitro cyst formation in both models"},
      {"measurement": "average survival", "setting": "cpk mice; FIG. 3, mean of 6 animals", "result": "45 ± 2", "unit": "days"},
      {"measurement": "weight gain (in words)", "setting": "cpk mice; cpk mice, versus DMSO or methotrexate", "result": "gained weight at substantially the same or lower rate"},
      {"measurement": "lifespan (in words)", "setting": "cpk mice; versus DMSO or methotrexate-treated mice", "result": "substantially longer lifespans"},
      {"measurement": "Cyst Formation (+/-)", "setting": "Murine CPK Cells [4]", "result": "-"}
    ]}
  ]
}
